Laboratory results published in publication PMC10392864, “Chukrasia tabularis limonoid plays anti-inflammatory role by regulating NF-κB signaling pathway in lipopolysaccharide-induced macrophages” (Food & Nutrition Research, 2023).
Where two headings read alike, the source gives them in different places.

Columns and labels:
[1] = tested on: KB (oral epithelial) cells; assay: Cytotoxicity, SRB method, KB; type: cell-based, human
Experimental: (§1) Huh-7 (hepatoma), MCF-7 (human breast), KB (oral epithelial), Hela (cervical), H460 (lung), A-549 (lung), and HepG2 (hepatocellular) cancer cell lines (provided by Shanghai Cell Bank) were maintained in RPMI 1640 at 37 ℃, supplemented with 10% FBS. Cytotoxicity was determined by the SRB method, with 5-fluorouracil (5-FU) as a positive control. The IC50 value was calculated using the GraphPad prism program.

[2] = tested on: HepG2 (hepatocellular) cells; assay: Cytotoxicity, SRB method, HepG2; type: cell-based, human
Experimental: as §1

H460 (lung) cells = assay: Cytotoxicity, SRB method, H460; type: cell-based, human
Experimental: as §1

[3] = tested on: LPS-induced NO production in RAW264.7 cells; assay: LPS-induced NO production in RAW264.7 cells (Griess reaction); type: cell-based; settings: RAW264.7 cells, LPS 2 µg/mL, supernatant after 24 h, read-out: IC50, inhibitory activity on LPS-induced NO production in RAW264.7 cells
Experimental: The inhibitory activities of compounds 1–16 on LPS stimulated macrophages was determined by Griess reaction. The NO content was detected by the NO kit according to the protocol described earlier ([23]). RAW264.7 cells obtained from the China Center for Cultivated Studies (Shanghai, China) were maintained in DMEM containing 10% FBS, and under 5% CO2 at 37°C. Briefly, the cells were seeded in a 96-well plate (1 × 10^5 cells/well), after 8 h of pre-incubation under 5% CO2 at 37°C, compounds 1–16 were added to the well plate, respectively, for 12 h. […] The supernatant of the cell culture were collected 24 h later.

Hela (cervical) cells = assay: Cytotoxicity, SRB method, Hela; type: cell-based, human
Experimental: as §1

Huh-7 (hepatoma) cells = assay: Cytotoxicity, SRB method, Huh-7; type: cell-based, human
Experimental: as §1

[4] = tested on: Huh7, HepG2, KB, H460, Hela, A-549 and MCF-7 tumor cell lines; assay: Cytotoxicity, SRB method, statements on all seven tumor cell lines; type: cell-based, human; settings: for cytotoxicity on seven tumor cell lines (in words): Huh7, HepG2, KB, H460, Hela, A-549, MCF-7; for IC50: all seven cell lines, SRB method, footnote of Table S3, read-out: IC50, cytotoxicity against all cell lines tested
Experimental: The cytotoxicity of the separated compounds was assessed against seven tumor cell lines, Huh7, HepG2, KB, H460, Hela, A-549 and MCF-7 ([40], [41]).
as §1

A-549 (lung) cells = assay: Cytotoxicity, SRB method, A549; type: cell-based, human
Experimental: as §1

[5] = tested on: MCF-7 (human breast) cells; assay: Cytotoxicity, SRB method, MCF-7; type: cell-based
Experimental: as §1

xylene-induced ear edema = assay: Ear edema induced by xylene in mice; type: in vivo; settings: 200 mg/kg intragastric, 1 h before xylene, ears weighed 1 h after xylene
From the text: Male ICR mice (18–20 g) were provided by the Laboratory Animal Center, Fujian Medical University. […] One hour after xylene treatment, the mice were sacrificed by cervical dislocation. […] The weight difference of two plugs was used to measure the edema response (Table S1). Animal care and use complied with institutional guidelines, and the program was affirmed by the Experimental Animal Management Committee of Fujian Medical University.

[6] = Cytotoxicity, SRB method, KB; type: cell-based, human; settings: human, KB (oral epithelial) cells
Experimental: as §1

[7] = Cytotoxicity, SRB method, HepG2; type: cell-based, human; settings: human, HepG2 (hepatocellular) cells
Experimental: as §1

[8] = Cytotoxicity, SRB method, H460; type: cell-based, human; settings: human, H460 (lung) cells
Experimental: as §1

[9] = Cytotoxicity, SRB method, Hela; type: cell-based, human; settings: human, Hela (cervical) cells
Experimental: as §1

[10] = Cytotoxicity, SRB method, Huh-7; type: cell-based, human; settings: human, Huh-7 (hepatoma) cells
Experimental: as §1

[11] = Cytotoxicity, SRB method, A549; type: cell-based, human; settings: human, A-549 (lung) cells
Experimental: as §1

[12] = Cytotoxicity, SRB method, MCF-7; type: cell-based, human; settings: human, MCF-7 (human breast) cells
Experimental: as §1

Work on “21β-methoxy-25-ene-bitrinonediol [Compound 7]” yielded an IC50 [1] of 40.9 ± 6.56 µM, an IC50 [2] greater than 100 µM and an IC50 (H460 (lung) cells) greater than 100 µM. For the same molecule, the IC50 [3] was greater than 100 µM, the IC50 (Hela (cervical) cells) was 58.4 ± 9.09 µM and the IC50 (Huh-7 (hepatoma) cells) was 94.7 ± 12.5 µM. The “cytotoxicity on seven tumor cell lines (in words)” value (from here on “cytotoxicity”) [4] was “moderate cytotoxicity”, the IC50 (A-549 (lung) cells) was greater than 100 µM and the IC50 [5] was greater than 100 µM.

`C=C(C)C(O)C(O)CC(C)C1CCC2(C)C3=CCC4C(C)(C)C(=O)CCC4(C)C3CCC12C` (stereo not shown) [Compound 8, (13a, 14b, 17a, 20S, 23R, 24R)-23, 24-dihydro-xylanosta-7, 25-dien-3-one] gave an IC50 [3] of 46.1 ± 6.11 µM and an IC50 [4] greater than 100 µM.

`CC(C)(O)C1OCC(C2CCC3(C)C4=CCC5C(C)(C)C(=O)CCC5(C)C4CCC23C)CC1O` (stereo not shown) [Compound 6, bourjotinolone A] gave an IC50 [2] of 59.3 ± 4.67 µM, an IC50 [3] of 35.6 ± 4.29 µM and an IC50 (Hela (cervical) cells) of 29.3 ± 7.11 µM. The IC50 (Huh-7 (hepatoma) cells) was 29.6 ± 7.69 µM, the “cytotoxicity” value [4] was “potent inhibitory activities” and the IC50 (A-549 (lung) cells) was 43.6 ± 10.6 µM. For the same molecule, the IC50 [5] was greater than 100 µM.

“24-hydroxyl-7, 25-dien-3-one [Compound 10]” showed an IC50 [3] of 95.1 ± 9.4 µM and an IC50 [4] greater than 100 µM.

Work on `COC(=O)CC1C2(C)CC34OC5(C)OC6(C7CC(=O)OC(C8=CC(O)OC8=O)C7(C)CCC6(O5)C13C)C(OC(=O)C(C)C)C4(O)C2OC(=O)C(C)C` (stereo not shown) [Compound 4, phragmalin, 22, 23-dihydro-23-hydroxy-21-oxo-3, 30-di-isobutyrates] yielded an IC50 [3] of 21.9 ± 5.61 µM and an IC50 [4] greater than 100 µM.

In the case of “3R, 23S, 24R, 25- tetraol- 7- glyoxiene [Compound 14]”, the IC50 [3] is reported as 11.2 ± 1.12 µM.

`COc1ccc2c(c1)c(CC(=O)O)c(C)n2C(=O)c1ccc(Cl)cc1` [Indomethacin, reference compound] showed an IC50 ([3]; Mus musculus) of 26.2 ± 1.56 µM.

`CO[C@H]1O[C@@H]([C@H](O)C(C)(C)OC)C[C@H]1[C@@H]1CC[C@]2(C)C3=CC[C@H]4C(C)(C)C(=O)CC[C@]4(C)[C@H]3CC[C@@]12C` [Compound 13, 21β, 25-dimethylmelianodiol] gave an IC50 [3] of 24.9 ± 4.6 µM.

With `CC(=O)Oc1ccccc1C(=O)O` [Aspirin] the “Edema Degree (±SD)” value (xylene-induced ear edema) was 4.99 ± 0.30 mg and the “Inhibition Rate of ear edema” value (xylene-induced ear edema) was 36.30%.

For `CCC(=O)OC1C2(O)C(OC(=O)CC(C)C)C3(C)CC24OC2(C)OC15C1CC(=O)OC(C6=CC(O)OC6=O)C1(C)CCC5(O2)C4(C)C3CC(=O)OC` (stereo not shown) [Compound 3, Chukrasin G], the IC50 [6] was greater than 100 µM, the IC50 [7] was 99.4 ± 10.6 µM and the IC50 [8] was greater than 100 µM. It also gave an IC50 ([3]; Mus musculus) of 10.5 ± 0.98 µM, an IC50 [9] greater than 100 µM and an IC50 [10] greater than 100 µM. It also gave an IC50 [11] greater than 100 µM and an IC50 [12] greater than 100 µM.

`CO[C@@H]1O[C@@H]([C@H](O)C(C)(C)OC)C[C@H]1[C@@H]1CC[C@]2(C)C3=CC[C@H]4C(C)(C)C(=O)CC[C@]4(C)[C@H]3CC[C@@]12C` [Compound 12, 21α, 25-dimethyl-melianodiol] showed an IC50 [3] of 13.9 ± 5.33 µM.

For `C[C@@H](C[C@@H](O)[C@H](O)C(C)(C)O)[C@@H]1CC[C@]2(C)C3=CC[C@H]4C(C)(C)C(=O)CC[C@]4(C)[C@H]3CC[C@@]12C` [Compound 15, piscidinol A], the IC50 [3] was 33.6 ± 4.77 µM.

21β- methylmelianodiol [Compound 9] showed an IC50 [1] of 56.6 ± 8.3 µM, an IC50 [2] of 44.3 ± 6 µM and an IC50 [3] of 52.5 ± 8.98 µM. The IC50 (Hela (cervical) cells) was 60 ± 4.19 µM, the “cytotoxicity” value [4] was “potent inhibitory activities” and the IC50 (A-549 (lung) cells) was 66 ± 10.1 µM. It also gave an IC50 [5] greater than 100 µM.

Work on `CC1(C)OC[C@H]([C@@H]2CC[C@]3(C)C4=CC[C@H]5C(C)(C)C(=O)CC[C@]5(C)[C@H]4CC[C@@]23C)C[C@@H](O)[C@@H]1O` [Compound 16, hispidone] yielded an IC50 [3] greater than 100 µM.

Work on `COC(=O)CC1C2(C)CC34OC5(C)OC6(C7CC(=O)OC(C8=CC(=O)OC8O)C7(C)CCC6(O5)C13C)C(OC(=O)C(C)C)C4(O)C2OC(=O)C(C)C` (stereo not shown) [Compound 1, Phragmalin A] yielded an IC50 ([3]; Mus musculus) of 10.3 ± 0.39 µM.

`CC(C)(O)[C@@H](O)[C@H]1C[C@@H]([C@@H]2CC[C@]3(C)C4=CC[C@H]5C(C)(C)C(=O)CC[C@]5(C)[C@H]4CC[C@@]23C)[C@H](O)O1` [Compound 11, melianodiol] showed an IC50 [1] of 63.5 ± 8.25 µM, an IC50 [2] of 80 ± 5.26 µM and an IC50 (H460 (lung) cells) of 73.2 ± 10.5 µM. For the same molecule, the IC50 [3] was 13.3 ± 2.67 µM, the IC50 (Hela (cervical) cells) was 86.3 ± 9.28 µM and the IC50 (Huh-7 (hepatoma) cells) was 79.8 ± 9.24 µM. The “cytotoxicity” value [4] was “potent inhibitory activities”, the IC50 (A-549 (lung) cells) was 45.1 ± 6.33 µM and the IC50 [5] was 52.6 ± 7.2 µM.

In the case of `O=c1[nH]cc(F)c(=O)[nH]1` [5-Fluorouracil, 5-fluorouracil, reference compound], the IC50 [6] is reported as 19.5 ± 1.24 µM, the IC50 [7] is reported as 30.5 ± 1.54 µM and the IC50 [8] is reported as 13.7 ± 2.85 µM. It also gave an IC50 [9] of 2.31 ± 0.98 µM, an IC50 [10] of 36.2 ± 4.17 µM and an IC50 [11] of 36.2 ± 1.73 µM. For the same molecule, the IC50 [12] was 23.4 ± 1.22 µM.

`COC(=O)CC1C2(C)CC34OC5(C)OC6(C7CC(=O)OC(c8ccoc8)C7(C)CCC6(O5)C13C)C(OC(=O)C(C)C)C4(O)C2OC(=O)C(C)C` (stereo not shown) [Compound 5, phragmalin, 3, 30-di-isobutyrates] showed an IC50 [1] greater than 100 µM, an IC50 [2] of 78 ± 12.7 µM and an IC50 (H460 (lung) cells) greater than 100 µM. For the same molecule, the IC50 [3] was 35.6 ± 7.23 µM, the IC50 (Hela (cervical) cells) was greater than 100 µM and the IC50 (Huh-7 (hepatoma) cells) was greater than 100 µM. It also gave an IC50 (A-549 (lung) cells) greater than 100 µM and an IC50 [5] greater than 100 µM.
